US12461089B2, “Olfactory receptor involved in the perception of musk fragrance and the use thereof” (ChemoSensoryX Biosciences SA, priority 2017, dated 2025)
Where two headings read alike, the source gives them in different places.

Legend:
Format in all cases: cell-based
[1] = biological target: T1, OR5A2_variant 1 (Homo sapiens, UniProt Q8NGI9); experiment: Luciferase reporter concentration-response analysis on OR5A2_variant 1; settings: for activation of OR5A2 (OR5A2_variant 1), concentration-response: CRE-luciferase, semi-logarithmic serial dilutions, empty vector pEFIBRHO as control
T1 construct: expressed in transfected cells; host or cells: HEK293T-RTP1A1/RTP2
T1 sequence (Q8NGI9 1-324): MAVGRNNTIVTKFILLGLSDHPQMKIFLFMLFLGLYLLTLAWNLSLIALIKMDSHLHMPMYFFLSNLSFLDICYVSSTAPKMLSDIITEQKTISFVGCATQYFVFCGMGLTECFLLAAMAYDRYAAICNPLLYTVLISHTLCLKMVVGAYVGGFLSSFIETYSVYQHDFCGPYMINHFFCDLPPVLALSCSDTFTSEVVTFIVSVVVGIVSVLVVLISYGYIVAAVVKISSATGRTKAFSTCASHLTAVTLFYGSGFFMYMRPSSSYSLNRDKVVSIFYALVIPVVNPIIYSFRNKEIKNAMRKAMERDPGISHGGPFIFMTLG

[2] = biological target: T2, chimeric OR5A2_variant 1 (Homo sapiens, UniProt Q8NGI9, F293L/H55R/I289L/M58T); experiment: Luciferase reporter concentration-response analysis on chimeric OR5A2_variant 1; settings: CRE-luciferase; empty vector pEFIBRHO as control
T2 construct: expressed in transfected cells; host or cells: HEK293T-RTP1A1/RTP2
T2 sequence (Q8NGI9 with tags, fused parts or gaps H55R/M58T/I289L/F293L): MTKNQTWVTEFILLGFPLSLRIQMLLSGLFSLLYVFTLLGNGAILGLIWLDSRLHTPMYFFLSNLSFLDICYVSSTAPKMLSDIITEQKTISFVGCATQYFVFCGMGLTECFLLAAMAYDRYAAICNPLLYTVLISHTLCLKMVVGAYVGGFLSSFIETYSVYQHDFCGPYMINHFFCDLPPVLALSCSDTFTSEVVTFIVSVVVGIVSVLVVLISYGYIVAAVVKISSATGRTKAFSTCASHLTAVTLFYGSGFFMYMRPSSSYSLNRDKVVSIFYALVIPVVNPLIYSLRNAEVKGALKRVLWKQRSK

[3] = biological target: T3, OR11A1 (Homo sapiens, UniProt Q9GZK7); experiment: Luciferase reporter concentration-response analysis on OR11A1
T3 construct: expressed in transfected cells; host or cells: HEK293T-RTP1A1/RTP2
T3 sequence (Q9GZK7 1-315): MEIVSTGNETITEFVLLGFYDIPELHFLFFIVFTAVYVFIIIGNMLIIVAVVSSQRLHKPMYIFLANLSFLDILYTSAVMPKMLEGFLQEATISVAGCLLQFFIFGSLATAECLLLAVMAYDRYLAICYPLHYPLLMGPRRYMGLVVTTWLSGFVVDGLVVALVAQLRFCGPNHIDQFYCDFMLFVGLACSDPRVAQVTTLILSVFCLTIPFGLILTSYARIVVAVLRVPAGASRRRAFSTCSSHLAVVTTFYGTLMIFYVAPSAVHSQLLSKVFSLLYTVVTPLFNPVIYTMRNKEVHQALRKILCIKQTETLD

[4] = concentration-response analysis, luciferase reporter, values given as negative (log) numbers, read-out: calculated EC50, OR5A2 (converted)

Row | Compound | activation of OR5A2 (OR5A2_variant 1), concentration-response [1] | EC50 [1, 4] [µM] | activation of chimeric OR5A2_variant 1, concentration-response [2] | EC50 [1] [µM] | EC50 [3] [µM]
1 | CC(=O)c1c(C)c([N+](=O)[O-])c(C(C)(C)C)c([N+](=O)[O-])c1C [Musk Ketone, 4-tert-butyl-2,6-dimethyl-3,5-dinitroacetophenone] | shows dose response curves | 107 | shows dose response curves | – | –
2 | Cc1c([N+](=O)[O-])c(C)c([N+](=O)[O-])c(C(C)(C)C)c1[N+](=O)[O-] [Musk Xylene, 1-tert-butyl-3,5-dimethyl-2,4,6-trinitrobenzene] | shows dose response curves | – | shows dose response curves | 1.86 | 1.86
3 | O=C1CCC/C=C\CCCCCCCCCC1 [Velvione] | shows dose response curves | 28.8 | shows dose response curves | – | –
